In this test the test system is CD2F1 mice, L1210 leukemia sc, survival T/C. The test can be described thus: NCI In Vivo Anticancer Drug Screen. Data for tumor model L1210 Leukemia (subcutaneous) in CD2F1 (CDF1) mice. Conditions: endpoint: median survival time, higher = longer survival. The method, boiled down:
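Antitumor activity is scored in tumor-bearing mice by comparing survival or tumor size of treated animals against vehicle-treated controls, reported as T/C.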

The mark [1] stands for this setting: dose: 14.0 mg/kg/injection, schedule: Q01DX Z (sc), vehicle: water.
[2] abbreviates: dose: 23.0 mg/kg/injection, schedule: Q01DX Z (sc), vehicle: water.
Where [3] appears, read: dose: 39.0 mg/kg/injection, schedule: Q01DX Z (sc), vehicle: water.

Each structure is given as a SMILES string. Values joined by “and” are separate entries in the source; they are usually repeats but may differ in a detail not shown here. Equal entries are not always repeated. Toxic doses and inconclusive results are not listed.

Take `CN(Cc1cnc2nc(N)nc(N)c2n1)c1c(Cl)cc(C(=O)NC(CCC(=O)O)C(=O)O)cc1Br` (stereo not given): the T/C is 294 % of control and 318 % of control (dose: 17.0 mg/kg/injection, schedule: Q01DX Z (sc), vehicle: other); 356 % of control and 511 % of control (dose: 28.0 mg/kg/injection, schedule: Q01DX Z (sc), vehicle: other); 350 % of control (dose: 46.0 mg/kg/injection, schedule: Q01DX Z (sc), vehicle: other); 838 % of control (dose: 47.0 mg/kg/injection, schedule: Q01DX Z (sc), vehicle: other); 200 % of control (dose: 47.1 mg/kg/injection, schedule: Q01DX Z (oral), vehicle: other); 262 % of control (dose: 76.0 mg/kg/injection, schedule: Q01DX Z (sc), vehicle: other). For the same compound, the T/C was 250 % of control (dose: 78.0 mg/kg/injection, schedule: Q01DX Z (sc), vehicle: other); 183 % of control (dose: 78.1 mg/kg/injection, schedule: Q01DX Z (oral), vehicle: other); 193 % of control (dose: 126.0 mg/kg/injection, schedule: Q01DX Z (sc), vehicle: other); 172 % of control (dose: 130.0 mg/kg/injection, schedule: Q01DX Z (sc), vehicle: other); 172 % of control (dose: 130.1 mg/kg/injection, schedule: Q01DX Z (oral), vehicle: other); 150 % of control (dose: 216.0 mg/kg/injection, schedule: Q01DX Z (sc), vehicle: other). Further, the T/C is, setting by setting: (dose: 216.1 mg/kg/injection, schedule: Q01DX Z (oral), vehicle: other) 166 % of control; (dose: 360.0 mg/kg/injection, schedule: Q01DX Z (sc), vehicle: other) 155 % of control; (dose: 360.1 mg/kg/injection, schedule: Q01DX Z (oral), vehicle: other) 161 % of control.

Consider `Nc1n[nH]c2ccccc12`, for which the T/C runs as follows: (dose: 25.0 mg/kg/injection, schedule: Q01DX005 (ip), vehicle: acid diluted with saline) 102 % of control; (dose: 25.0 mg/kg/injection, schedule: Q01DX009 (ip), vehicle: acid diluted with saline) 113 % of control; (dose: 50.0 mg/kg/injection, schedule: Q01DX005 (ip), vehicle: acid diluted with saline) 106 % of control; (dose: 50.0 mg/kg/injection, schedule: Q01DX009 (ip), vehicle: acid diluted with saline) 99 % of control; (dose: 100.0 mg/kg/injection, schedule: Q01DX005 (ip), vehicle: acid diluted with saline) 104 % of control; (dose: 100.0 mg/kg/injection, schedule: Q01DX009 (ip), vehicle: acid diluted with saline) 103 % of control. The T/C (dose: 200.0 mg/kg/injection, schedule: Q01DX005 (ip), vehicle: acid diluted with saline) is 110 % of control.

Consider `CSCS(=O)C[C@H](CO)NC(=O)/C=C/c1c(C)[nH]c(=O)[nH]c1=O` (stereo not given in full), for which the T/C reads like this: (dose: 1.08 mg/kg/injection, schedule: Q01DX Z (sc), vehicle: saline) 110 % of control; (dose: 1.8 mg/kg/injection, schedule: Q01DX Z (sc), vehicle: saline) 110 % of control; (dose: 3.0 mg/kg/injection, schedule: Q01DX Z (sc), vehicle: saline) 100 % of control; (dose: 5.0 mg/kg/injection, schedule: Q01DX Z (sc), vehicle: saline) 90 % of control.

Take `O=c1cnn(C2OC(CO)C(O)C2O)c(=O)[nH]1` (stereo not given): the T/C (dose: 37.5 mg/kg/injection, schedule: Q01DX009 (ip), vehicle: saline) is 113 % of control; the T/C (dose: 75.0 mg/kg/injection, schedule: Q01DX009 (ip), vehicle: saline) was 120 % of control; the T/C (dose: 250.0 mg/kg/injection, schedule: Q01DX Z (sc), vehicle: saline) is 111 % of control; the T/C (dose: 500.0 mg/kg/injection, schedule: Q01DX Z (sc), vehicle: saline) is 116 % of control; the T/C (dose: 1000.0 mg/kg/injection, schedule: Q01DX Z (sc), vehicle: saline) was 111 % of control; the T/C (dose: 1200.0 mg/kg/injection, schedule: Q01DX009 (ip), vehicle: saline) was 103 % of control. Also, the T/C (dose: 1200.0 mg/kg/injection, schedule: Q01DX009 (sc), vehicle: saline) was 107 % of control.

For the compound `C[n+]1c2ccccc2nc2c(N)cc(N)cc21`, the T/C (dose: 3.0 mg/kg/injection, schedule: Q01DX Z (ip), vehicle: water) was 100 % of control; the T/C (dose: 5.0 mg/kg/injection, schedule: Q01DX Z (ip), vehicle: water) is 100 % of control; the T/C (dose: 5.0 mg/kg/injection, schedule: Q01DX Z (sc), vehicle: water) is 100 % of control; the T/C (dose: 8.4 mg/kg/injection, schedule: Q01DX Z (ip), vehicle: water) was 100 % of control; the T/C (dose: 8.4 mg/kg/injection, schedule: Q01DX Z (sc), vehicle: water) is 100 % of control; the T/C (dose: 14.0 mg/kg/injection, schedule: Q01DX Z (ip), vehicle: water) was 100 % of control. The T/C was 100 % of control under setting [1]; 100 % of control (dose: 23.0 mg/kg/injection, schedule: Q01DX Z (ip), vehicle: water); 111 % of control under setting [2]; 111 % of control (dose: 39.0 mg/kg/injection, schedule: Q01DX Z (ip), vehicle: water); 111 % of control under setting [3].

As for `C[C@@](O)(/C=C/[C@H]1CC=CC(=O)O1)[C@@H](C[C@@H](O)\C=C/C=C\C=C\CO)OP(=O)(O)O`, the T/C (dose: 0.78 mg/kg/injection, schedule: Q01DX009 (ip), vehicle: other) is 104 % of control; the T/C (dose: 1.56 mg/kg/injection, schedule: Q01DX009 (ip), vehicle: other) is 116 % of control; the T/C (dose: 3.13 mg/kg/injection, schedule: Q01DX009 (ip), vehicle: other) is 157 % of control; the T/C (dose: 6.25 mg/kg/injection, schedule: Q01DX009 (ip), vehicle: other) is 197 % of control.

Turning to `CC(C)CCNc1ncnc2c1cnn2C`, the T/C runs as follows: under setting [2], 100 % of control; under setting [3], 100 % of control; (dose: 65.0 mg/kg/injection, schedule: Q01DX Z (sc), vehicle: water) 100 % of control; (dose: 108.0 mg/kg/injection, schedule: Q01DX Z (sc), vehicle: water) 109 % of control; (dose: 180.0 mg/kg/injection, schedule: Q01DX Z (sc), vehicle: water) 100 % of control.

In the case of `CS(=O)(=O)OCCCCCCCCCOS(C)(=O)=O`, the T/C (dose: 47.0 mg/kg/injection, schedule: Q01DX Z (sc), vehicle: carboxymethylcellulose (CMC)) is 112 % of control.

`CCOC(=O)NP(=O)(N1CC1)N1CC1`: the T/C under setting [1] is 172 % of control and the T/C under setting [2] was 161 % of control.

Regarding `Nc1nc(N)c2[nH]cnc2n1`, the T/C runs as follows: (dose: 20.0 mg/kg/injection, schedule: Q01DX Z (sc), vehicle: steriod suspending solution) 106 % of control; (dose: 40.0 mg/kg/injection, schedule: Q01DX Z (sc), vehicle: steriod suspending solution) 100 % of control; (dose: 80.0 mg/kg/injection, schedule: Q01DX Z (sc), vehicle: steriod suspending solution) 100 % of control; (dose: 160.0 mg/kg/injection, schedule: Q01DX Z (sc), vehicle: steriod suspending solution) 100 % of control.

For the origin of these results see PubChem BioAssay AID258 (DTP/NCI, 2004).
